Molecular target: T1, hASBT (Homo sapiens, UniProt Q12908)
T1 sequence (Q12908 1-348): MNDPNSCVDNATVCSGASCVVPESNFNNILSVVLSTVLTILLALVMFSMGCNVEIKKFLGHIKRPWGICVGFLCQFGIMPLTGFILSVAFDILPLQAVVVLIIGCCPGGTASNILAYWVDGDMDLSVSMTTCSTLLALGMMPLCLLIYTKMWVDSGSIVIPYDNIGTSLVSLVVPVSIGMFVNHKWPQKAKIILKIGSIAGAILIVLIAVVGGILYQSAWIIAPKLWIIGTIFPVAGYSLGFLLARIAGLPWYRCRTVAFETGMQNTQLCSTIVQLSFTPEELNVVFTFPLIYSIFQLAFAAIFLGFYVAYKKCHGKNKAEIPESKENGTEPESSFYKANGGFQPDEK
Assay: in vitro
Conditions: MDCK

C[C@H](CCC(=O)NCCS(=O)(=O)O)[C@H]1CC[C@H]2[C@@H]3[C@H](O)C[C@@H]4C[C@H](O)CC[C@]4(C)[C@H]3C[C@H](O)[C@]12C [TCA, Taurocholate]
Papp: 0.089 to 0.3 ×10⁻⁶ cm/s
